Experimental data taken from patent US12655125B2 (SIRONAX LTD., priority 2020, dated 2026).

What follows are compounds tested on HT-29 cells (assay: HT29 Cells 0FBS Assay In Vitro (TNF-α/SMAC mimetic/zVAD-FMK induced necroptosis, CellTiter-Glo cell viability)). Details: Homo sapiens, HT-29, 20 h, read-out: Cell activity (EC50) of Compounds 1-116.
Assay type: cell-based
Summary of the method: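 Viability was measured by ATP luminescence (CellTiter-Glo) after 20 h at 37° C of compound exposure in 10-point, 1:3 dilutions. Necroptosis in FBS-free HT-29 cultures was driven by a TNF-α (10 ng/ml), SMAC mimetic (6 μM) and zVAD-FMK (10 μM) cocktail. EC50 values are geometric means from duplicate curves.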

SMILES	EC50 [nM]
CN(C)Cc1cnn(C)c1-c1cc(OC2CN(C(=O)N3N=CC[C@H]3c3cc(F)cc(F)c3)C2)c(F)cn1 [compound 79, (S)-(5-(3,5-difluorophenyl)-4,5-dihydro-1H-pyrazol-1-yl)(3-((2-(4-((dimethylamino)methyl)-1-methyl-1H-pyrazol-5-yl)-5-fluoropyridin-4-yl)oxy)azetidin-1-yl)methanone]	0.1 to 100

Same assay, conditions: Homo sapiens; HT-29 cells, FBS free medium, TNF-α (10 ng/ml), SMAC mimetic (6 uM), zVAD-FMK (10 μM), 20 hours; geometric mean EC50; read-out: Cell activity (EC50) of Compounds 1-116

SMILES	EC50 [nM]
Cn1ncc(C(=O)N2CCCC2)c1-c1cc(OC2CN(C(=O)N3N=CC[C@H]3c3cc(F)cc(F)c3)C2)c(F)cn1 [compound 75, (S)-(5-(3,5-difluorophenyl)-4,5-dihydro-1H-pyrazol-1-yl)(3-((5-fluoro-2-(1-methyl-4-(pyrrolidine-1-carbonyl)-1H-pyrazol-5-yl)pyridin-4-yl)oxy)azetidin-1-yl)methanone]	1000 to 10000
Cn1ncc(C(=O)N2CCCCC2)c1-c1cc(OC2CN(C(=O)N3N=CC[C@H]3c3cc(F)cc(F)c3)C2)c(F)cn1 [compound 76, (S)-(5-(3,5-difluorophenyl)-4,5-dihydro-1H-pyrazol-1-yl)(3-((5-fluoro-2-(1-methyl-4-(piperidine-1-carbonyl)-1H-pyrazol-5-yl)pyridin-4-yl)oxy)azetidin-1-yl)methanone]	1000 to 10000
Cn1ncc(C(=O)N2CCOCC2)c1-c1cc(OC2CN(C(=O)N3N=CC[C@H]3c3cc(F)cc(F)c3)C2)c(F)cn1 [compound 77, (S)-(5-(3,5-difluorophenyl)-4,5-dihydro-1H-pyrazol-1-yl)(3-((5-fluoro-2-(1-methyl-4-(morpholine-4-carbonyl)-1H-pyrazol-5-yl)pyridin-4-yl)oxy)azetidin-1-yl)methanone]	1000 to 10000
Cn1ncc(CO)c1-c1cc(OC2CN(C(=O)N3N=CC[C@H]3c3cc(F)cc(F)c3)C2)c(F)cn1 [compound 78, (S)-(5-(3,5-difluorophenyl)-4,5-dihydro-1H-pyrazol-1-yl)(3-((5-fluoro-2-(4-(hydroxymethyl)-1-methyl-1H-pyrazol-5-yl)pyridin-4-yl)oxy)azetidin-1-yl)methanone]	0.1 to 100
COCc1cnn(C)c1-c1cc(OC2CN(C(=O)N3N=CC[C@H]3c3cc(F)cc(F)c3)C2)c(F)cn1 [compound 80, (S)-(5-(3,5-difluorophenyl)-4,5-dihydro-1H-pyrazol-1-yl)(3-((5-fluoro-2-(4-(methoxymethyl)-1-methyl-1H-pyrazol-5-yl)pyridin-4-yl)oxy)azetidin-1-yl)methanone]	0.1 to 100
Cn1ncc(F)c1-c1cc(OC2CN(C(=O)N3N=CC[C@H]3c3cc(F)cc(F)c3)C2)c(F)cn1 [compound 81, (S)-(5-(3,5-difluorophenyl)-4,5-dihydro-1H-pyrazol-1-yl)(3-((5-fluoro-2-(4-fluoro-1-methyl-1H-pyrazol-5-yl)pyridin-4-yl)oxy)azetidin-1-yl)methanone]	0.1 to 100
Cn1ncc(F)c1-c1ncc(F)c(OC2CN(C(=O)N3N=CC[C@H]3c3cc(F)cc(F)c3)C2)n1 [compound 82, (S)-(5-(3,5-difluorophenyl)-4,5-dihydro-1H-pyrazol-1-yl)(3-((5-fluoro-2-(4-fluoro-1-methyl-1H-pyrazol-5-yl)pyrimidin-4-yl)oxy)azetidin-1-yl)methanone]	0.1 to 100
Cn1ncc(Cl)c1-c1cc(OC2CN(C(=O)N3N=CC[C@H]3c3cc(F)cc(F)c3)C2)c(F)cn1 [compound 83, (S)-(3-((2-(4-chloro-1-methyl-1H-pyrazol-5-yl)-5-fluoropyridin-4-yl)oxy)azetidin-1-yl)(5-(3,5-difluorophenyl)-4,5-dihydro-1H-pyrazol-1-yl)methanone]	0.1 to 100
Cn1ncc(Cl)c1-c1ncc(F)c(OC2CN(C(=O)N3N=CC[C@H]3c3cc(F)cc(F)c3)C2)n1 [compound 84, (S)-(3-((2-(4-chloro-1-methyl-1H-pyrazol-5-yl)-5-fluoropyrimidin-4-yl)oxy)azetidin-1-yl)(5-(3,5-difluorophenyl)-4,5-dihydro-1H-pyrazol-1-yl)methanone]	0.1 to 100
Cc1n[nH]cc1-c1cc(OC2CN(C(=O)N3N=CC[C@H]3c3cc(F)cc(F)c3)C2)c(F)cn1 [compound 85, (S)-(5-(3,5-difluorophenyl)-4,5-dihydro-1H-pyrazol-1-yl)(3-((5-fluoro-2-(3-methyl-1H-pyrazol-4-yl)pyridin-4-yl)oxy)azetidin-1-yl)methanone]	0.1 to 100
COCCn1cc(-c2cc(OC3CN(C(=O)N4N=CC[C@H]4c4cc(F)cc(F)c4)C3)c(F)cn2)c(C)n1 [compound 86, (S)-(5-(3,5-difluorophenyl)-4,5-dihydro-1H-pyrazol-1-yl)(3-((5-fluoro-2-(1-(2-methoxyethyl)-3-methyl-1H-pyrazol-4-yl)pyridin-4-yl)oxy)azetidin-1-yl)methanone]	0.1 to 100
O=C(N1CC(Oc2nc(-c3ccn[nH]3)ncc2F)C1)N1N=CC[C@H]1c1cc(F)cc(F)c1 [compound 87, (S)-(5-(3,5-difluorophenyl)-4,5-dihydro-1H-pyrazol-1-yl)(3-((5-fluoro-2-(1H-pyrazol-5-yl)pyrimidin-4-yl)oxy)azetidin-1-yl)methanone]	0.1 to 100
NC(=O)Cn1nccc1-c1ncc(F)c(OC2CN(C(=O)N3N=CC[C@H]3c3cc(F)cc(F)c3)C2)n1 [compound 88, (S)-2-(5-(4-((1-(5-(3,5-difluorophenyl)-4,5-dihydro-1H-pyrazole-1-carbonyl)azetidin-3-yl)oxy)-5-fluoropyrimidin-2-yl)-1H-pyrazol-1-yl)acetamide]	100 to 1000
NC(=O)Cn1ccc(-c2ncc(F)c(OC3CN(C(=O)N4N=CC[C@H]4c4cc(F)cc(F)c4)C3)n2)n1 [compound 89, (S)-2-(3-(4-((1-(5-(3,5-difluorophenyl)-4,5-dihydro-1H-pyrazole-1-carbonyl)azetidin-3-yl)oxy)-5-fluoropyrimidin-2-yl)-1H-pyrazol-1-yl)acetamide]	100 to 1000
Cc1[nH]ncc1-c1ncc(F)c(OC2CN(C(=O)N3N=CC[C@H]3c3cc(F)cc(F)c3)C2)n1 [compound 90, (S)-(5-(3,5-difluorophenyl)-4,5-dihydro-1H-pyrazol-1-yl)(3-((5-fluoro-2-(5-methyl-1H-pyrazol-4-yl)pyrimidin-4-yl)oxy)azetidin-1-yl)methanone]	0.1 to 100
Cc1n[nH]c(C)c1-c1ncc(F)c(OC2CN(C(=O)N3N=CC[C@H]3c3cc(F)cc(F)c3)C2)n1 [compound 91, (S)-(5-(3,5-difluorophenyl)-4,5-dihydro-1H-pyrazol-1-yl)(3-((2-(3,5-dimethyl-1H-pyrazol-4-yl)-5-fluoropyrimidin-4-yl)oxy)azetidin-1-yl)methanone]	0.1 to 100
Cc1n[nH]c(C)c1-c1cc(OC2CN(C(=O)N3N=CC[C@H]3c3cc(F)cc(F)c3)C2)c(F)cn1 [compound 92, (S)-(5-(3,5-difluorophenyl)-4,5-dihydro-1H-pyrazol-1-yl)(3-((2-(3,5-dimethyl-1H-pyrazol-4-yl)-5-fluoropyridin-4-yl)oxy)azetidin-1-yl)methanone]	0.1 to 100
COCCn1nc(C)c(-c2cc(OC3CN(C(=O)N4N=CC[C@H]4c4cc(F)cc(F)c4)C3)c(F)cn2)c1C [compound 93, (S)-(5-(3,5-difluorophenyl)-4,5-dihydro-1H-pyrazol-1-yl)(3-((5-fluoro-2-(1-(2-methoxyethyl)-3,5-dimethyl-1H-pyrazol-4-yl)pyridin-4-yl)oxy)azetidin-1-yl)methanone]	0.1 to 100
Cc1nn(CC(N)=O)c(C)c1-c1cc(OC2CN(C(=O)N3N=CC[C@H]3c3cc(F)cc(F)c3)C2)c(F)cn1 [compound 94, (S)-2-(4-(4-((1-(5-(3,5-difluorophenyl)-4,5-dihydro-1H-pyrazole-1-carbonyl)azetidin-3-yl)oxy)-5-fluoropyridin-2-yl)-3,5-dimethyl-1H-pyrazol-1-yl)acetamide]	0.1 to 100
Cc1nn(CC(=O)N(C)C)c(C)c1-c1cc(OC2CN(C(=O)N3N=CC[C@H]3c3cc(F)cc(F)c3)C2)c(F)cn1 [compound 95, (S)-2-(4-(4-((1-(5-(3,5-difluorophenyl)-4,5-dihydro-1H-pyrazole-1-carbonyl)azetidin-3-yl)oxy)-5-fluoropyridin-2-yl)-3,5-dimethyl-1H-pyrazol-1-yl)-N,N-dimethylacetamide]	0.1 to 100
Cc1nn(CC(=O)N2CCOCC2)c(C)c1-c1cc(OC2CN(C(=O)N3N=CC[C@H]3c3cc(F)cc(F)c3)C2)c(F)cn1 [compound 96, (S)-2-(4-(4-((1-(5-(3,5-difluorophenyl)-4,5-dihydro-1H-pyrazole-1-carbonyl)azetidin-3-yl)oxy)-5-fluoropyridin-2-yl)-3,5-dimethyl-1H-pyrazol-1-yl)-1-morpholinoethan-1-one]	0.1 to 100
CNC(=O)Cn1nc(C)c(-c2cc(OC3CN(C(=O)N4N=CC[C@H]4c4cc(F)cc(F)c4)C3)c(F)cn2)c1C [compound 97, (S)-2-(4-(4-((1-(5-(3,5-difluorophenyl)-4,5-dihydro-1H-pyrazole-1-carbonyl)azetidin-3-yl)oxy)-5-fluoropyridin-2-yl)-3,5-dimethyl-1H-pyrazol-1-yl)-N-methylacetamide]	0.1 to 100
CNC(=O)Cn1nc(C)c(-c2ncc(F)c(OC3CN(C(=O)N4N=CC[C@H]4c4cc(F)cc(F)c4)C3)n2)c1C [compound 98, (S)-2-(4-(4-((1-(5-(3,5-difluorophenyl)-4,5-dihydro-1H-pyrazole-1-carbonyl)azetidin-3-yl)oxy)-5-fluoropyrimidin-2-yl)-3,5-dimethyl-1H-pyrazol-1-yl)-N-methylacetamide]	0.1 to 100
Cc1nn(CC(N)=O)c(C)c1-c1ncc(F)c(OC2CN(C(=O)N3N=CC[C@H]3c3cc(F)cc(F)c3)C2)n1 [compound 99, (S)-2-(4-(4-((1-(5-(3,5-difluorophenyl)-4,5-dihydro-1H-pyrazole-1-carbonyl)azetidin-3-yl)oxy)-5-fluoropyrimidin-2-yl)-3,5-dimethyl-1H-pyrazol-1-yl)acetamide]	0.1 to 100
